SMILES strings stand for the structures. Entries after “also recorded” stand apart in the source; their conditions may differ.

The subject of one data set is A549. The data set can be described thus: MTT cytotoxicity evaluation against A549 cells. The data set is classed as cell-based, human. The following applies: for IC50: Homo sapiens, A549, 48 h, 48 hours. As to the method:
(§1) A549 (human lung cancer cells) were obtained from the American Type Culture Collection (ATCC) and used. The cells were cultured in a medium containing 10% FBS, 1% penicillin (10,000 units/mL), and streptomycin (10 mg/mL), or in Dulbecco's Modified Eagle's Medium (DMEM), at 37° C. under 5% CO2 conditions.
To measure cytotoxicity, an MTT assay was used. Specifically, A549 cells cultured according to Experimental Example 1 were seeded into a 96-well plate at a density of 2.5×10^4 cells/mL in 100 μL, and incubated for 24 hours. Thereafter, the cells were treated with either the compounds prepared according to Examples 1 to 27 or, as comparative agents, decursin or docetaxel. The prepared compounds and decursin were each administered to the A549 cell line at concentrations of 0 μM (untreated), 12.5 μM, 25 μM, 50 μM, 100 μM, and 200 μM, while docetaxel was administered at concentrations of 0 nM (untreated), 0.1 nM, 1 nM, 10 nM, 100 nM, and 1,000 nM, followed by incubation for an additional 48 hours. Then, 20 μL of MTT solution was added (Method 1). Alternatively, the compounds prepared according to Examples 28 to 30, the compound of Example 5 as a reference compound or, as comparative agents, decursin or docetaxel, were used. The prepared compounds, the compound of Example 5, and decursin were each administered at concentrations of 0 μM (untreated), 3.125 μM, 6.25 μM, 12.5 μM, 25 μM, and 50 μM, while docetaxel was administered at concentrations of 0 nM (untreated), 0.6 nM, 1.25 nM, 2.5 nM, 5 nM, and 10 nM, and treated in the same manner as described in Method 1 (Method 2). The cells treated with MTT solution were incubated for 2 hours, the medium was removed, and the formazan blue crystals formed by the cells were treated with an MTT lysis buffer, followed by incubation in a cell incubator for 24 hours. The MTT lysis buffer was prepared by mixing N,N-dimethylformamide with water in a 1:1 ratio to give a solution containing 20% SIDS (sodium dodecyl sulfate) at the final concentration. The optical density at 590 nm was measured using a microplate reader (FIGS. 1a to 1d). Based on the measured values, the cytotoxicity (IC50) against A549 was calculated, and the results are disclosed in Table 1 together with the structural formulae.

The subject of the next data set is A549 cells. The data set can be described thus: Co-administration with gefitinib, MTT cell viability and synergy score in A549 cells. It counts as cell-based, human. The following applies: for cytotoxicity against A549 on co-administration with gefitinib: gefitinib 1.25-20 μM plus compound 6.25-100 μM, compared with decursin plus gefitinib, FIG. 2. On the procedure:
as §1
Nevertheless, the compound of Example 5, when used as a single agent, was somewhat limited in its efficacy, and therefore its potential as a co-administration agent with existing non-small cell lung cancer therapeutic agents was examined. To this end, gefitinib (Iressa) was selected, and the compound of Example 5, together with decursin for comparison, was co-administered to A549 cells, and the cytotoxicity thereof was measured. To further evaluate dose dependency, gefitinib was administered at concentrations of 0 μM (untreated), 1.25 μM, 2.5 μM, 5 μM, 10 μM, and 20 μM, in combination with either decursin or the […], each administered at concentrations of 0 μM (untreated), 6.25 μM, 12.5 μM, 25 μM, 50 μM, and 100 μM. The relative cell viability was measured by setting the viability of the untreated group, i.e., cells not treated with either gefitinib or decursin/decursin derivative, to 100%, and the results are shown in FIG. 2. Cell viability was determined using an MTT assay. […] In particular, as the concentration of the decursin derivative increased to 12.5 μM or higher, the difference in cell-killing effect became more pronounced.
Furthermore, the synergy score of the cytotoxicity of the combination of gefitinib with decursin or with the decursin derivative compound of Example 5 against A549 cells was calculated using the Synergyfinder webtool, and the results are shown in FIG. 3. A calculated synergy score of 10 or more was considered to indicate a synergistic effect, a score between −10 and 10 was considered to indicate an additive effect, and a score below −10 was considered to indicate an antagonistic effect.

[1] abbreviates: Method 2 (marked *): 3.125-50 μM.

With `CC1(C)Oc2cc3oc(=O)ccc3cc2C[C@@H]1OC(=O)/C=C/c1ccoc1` [Example 5, (S,E)-2,2-dimethyl-8-oxo-2,3,4,8-tetrahydropyrano[3,2-g]chromen-3-yl 3-(furan-3-yl)acrylate], the figures for the half-maximal inhibitory concentration (IC50) with A549 (Method 1: 12.5-200 μM) and in the data set on A549 (setting [1]) were 30.3 µM and 7.88 µM, respectively. Further, the “cell-killing effect against human lung cancer cell line A549 compared to decursin” value with A549 (single agent) is listed as “superior cell-killing effect; also recorded: most potent effect”. In the data set on A549 cells (10 μM gefitinib plus 6.25 μM compound, Synergyfinder webtool, score of 10 or more = synergistic), the “synergy score of cytotoxicity against A549” value is approximately 15. The “cytotoxicity against A549 on co-administration with gefitinib” value with A549 cells was “superior to that observed with co-administration of decursin and gefitinib”; in the data set with A549 cells (listed as compound of Formula 2), “synergistic cell-killing effect”.
`CN(C)c1ccc(CC(=O)O[C@H]2Cc3cc4ccc(=O)oc4cc3OC2(C)C)cc1` [Example 29, (S)-2,2-dimethyl-8-oxo-2,3,4,8-tetrahydropyrano[3,2-g]chromen-3-yl 4-(dimethylamino)phenylacetate] came in with an IC50 in the data set on A549 (setting [1]) of 52.4 µM.
The same measure, in the same setting: next, `CN(C)c1ccc(/C=C/C(=O)O[C@H]2Cc3cc4ccc(=O)oc4cc3OC2(C)C)cc1` [Example 30, (S,E)-2,2-dimethyl-8-oxo-2,3,4,8-tetrahydropyrano[3,2-g]chromen-3-yl 3-(4-(dimethylamino)phenyl)acrylate]: 151 µM.

Usually IC50 stands for the concentration needed to halve the response being measured. Low values mean greater potency, high ones weaker potency.

The values above are taken from patent US20260232625A1, “NOVEL DECURSIN DERIVATIVE AND USE THEREOF FOR PREVENTING OR TREATING NON-SMALL CELL LUNG CANCER” (JAEIN R&P INC., priority 2023, published 2026).
